# Measurements reported in US12024544B2, “CCN3 and CCN3 peptides and analogs thereof for therapeutic use” (Rosalind Franklin University of Medicine & Science, priority 2010, dated 2024).
# Entries after “also recorded” stand apart in the source; their conditions may differ. Where a SMILES comes first, the peptide text is derived from it.
# Experiments:
# Format in all cases: cell-based
# collagen type I promoter = collagen type I promoter (COL 1a2 promoter-luciferase) assay in TGF-beta stimulated mesangial cells
# Protocol: In a second assay, the ability of the peptide to block the stimulation of collagen type I promoter by TGF-beta was tested. Collagen type I upregulation is a characteristic feature of fibrosis and is often used as an end point determination. TGF-beta is a well-established pro-fibrotic factor or cytokine that mesangial cells and other cells in the fibrotic response respond to by upregulating collagen and other matrix molecule production and accumulation. Several new anti-fibrotic therapies are under development that target the activity of TGF-beta. For the assays used in connection with the present invention, collagen promoter activity was measured as a rapid and early indicator of collagen-related fibrotic activity. The cells in culture were either unstimulated or stimulated by TGF-beta, both in the presence and absence of the selected peptides. If the peptides have inhibitory activity, the promoter activity under TGF-beta stimulation would be reduced to some value approaching the control, non-TGF-beta treated cells. The collagen promoter assay is based on the transfection of mesangial cells with a COL 1a2 promoter linked to luciferase. Therefore, when the promoter is stimulated it can be measured as luciferase units (Riser et al, CCN3 is a negative regulator of CCN2 and a novel endogenous inhibitor of the fibrotic pathway in an in vitro model of renal disease, American J Pathology, 174, 5, 2009). The level of collagen promoter activation (in arbitrary units), is based on a transfection efficiency control (CMV promoter activation).
# [1] = test system: human chronic myelogenous leukemia cells (K562); details: 10 nM
# Protocol: Another potential use of the methods described in the invention is for the treatment of cancers. […] CCNp generated to mimic the effects of the function of CCN3 to prevent, reduce, stop or reverse progression of fibrosis/scarring may also serve to limit cancer growth. […] In untreated cells (Control) and those pre-incubated with quantities (approximately 10 nM) of a commercial recombinant CCN3 (rCCN3c), or full length CCN3 made in our laboratory, represented by several preparations rCCN3 8 (SEQ ID NO: 44), rCCN3 9 (SEQ ID NO: 44), rCCN3 10 (SEQ ID NO: 44), rCCN3 11 (SEQ ID NO: 44), or the peptides CCN p37 or CCN p38 were allowed to grow, then proliferation measured by the CellTiter-Glo® Luminescent Cell Viability Assay Control untreated cells, or cells (McCallum, L et al, CCN3: a key growth regulator in Chronic Myeloid Leukaemia, J Cell Commun Signal. 2009 June; 3(2): 115-124.). The latter is a homogeneous method of determining the number of viable cells in culture based on quantitation of the ATP present, an indicator of metabolically active cells. […] In comparison, CCNp37 produces 15-20% inhibition and CCNp38 approximately 40% inhibition of cell growth. Thus the activity was greater than the full-length CCN3.
# MMP-1 = MMP-1 production by human skin fibroblasts; details: for reduction in PDGF stimulated MMP-1 production: 100 nM, FIG. 27
# Excerpt: (§1) To test this we used a cell culture model of skin healing/scarring, which employed the use of primary human skin fibroblasts derived from foreskins collected post circumcision. These have been used extensively in the past to grown in culture and treated with agents that are known to drive wound healing and or scarring. We were also interested in a rare form of skin fibrosis/scarring that can lead to systemic disease and death known as nephrogenic systemic fibrosis (NSF). NSF is a complication of NMR diagnostics in renal impaired patients, where gadolinium (GAD), a heavy metal, is used as a contrast agent, but in some cases appears to deposit in skin. Although the mechanism for development of skin fibrosis and subsequent systemic disease is not yet completely understood, we have developed a model that has allowed elucidation of the probable pathway to skin fibrosis (Bhagavathula, N., M. K. Dame, M. DaSilva, W. Jenkins, M. N. Aslam, P. Perone and J. Varani (2010)). “Fibroblast response to gadolinium: role for platelet-derived growth factor receptor.” Invest Radiol 45(12): 769-777). This disease is characterized as a hyperproliferative disease, and in our model it was shown that PDGF produced by resident skin fibroblasts are stimulated by GAD to increase their production of PDGF which acts to induce proliferation and the increased production of MMPs, regulators of ECM breakdown and thus turnover, including the major MMP, MMP-1. At the same time tissue inhibitors of MMPs (TIMPs) are also affected by exposure to GAD. […] It appears that local fibroblasts then respond to this increased TGF-beta by increasing their production of ECM, including predominantly collagen type 1.
# (§2) We examined the role of CCN3 and CCNp in fibroproliferative/fibrotic responses in human dermal fibroblasts exposed to Omniscan, one of the gadolinium-based contrast agents associated with development of nephrogenic systemic fibrosis. These studies were carried out as we have previously described (Riser, B. L., N. Bhagavathula, P. Perone, K. Garchow, Y. Xu, G. J. Fisher, F. Najmabadi, D. Attili and J. Varani (2012)). “Gadolinium-induced fibrosis is counter-regulated by CCN3 in human dermal fibroblasts: a model for potential treatment of nephrogenic systemic fibrosis.” J Cell Commun Signal 6(2): 97-105.). In our studies, human dermal fibroblasts were exposed to Omniscan; or to PDGF and TGF-β1 as controls. Cellular proliferation was assessed along with MMP-1 (by ELISA and gelatin zymography), TIMP-1 (by ELISA) and COL1 (by ELISA) in the absence and presence of CCN3 and CCNp. CCN3 and CCNp38 was added to cells at 10 nM concentration and at the same time as PDGF. In parallel, CCN3 production was assessed in control and Omniscan-treated cells. In most case the results shown (each bar) are the mean of 3-5 separate experiments, using fibroblasts from different donors. CCN3 was produced in our laboratory from the human embryonic kidney cell line (HEK-293) transfected with the complete human CCN3 gene, and producing an approximate 55 kDa, full-length CCN3 product. A second source of CCN3 was obtained from Pepro Tech Corporation (Rocky Hill, NJ) and is produced in a prokaryote cell line.
# (§3) Next we created and tested for efficacy, additional CCNp including those with the cysteines intact (native sequence) from CCNp37 and CCNp38 and those that were modified by either shortening the peptide by 1 or 2 amino acids or lengthening by one amino acid. These agents were added to human skin fibroblasts in increasing concentrations from 1 nM to 100 nM and compared to the equal concentration of CCN3 (SEQ. ID. NO: 67). They were added just prior to the addition of either TGF-beta or PDGF, depending on the experiment.
# human skin fibroblasts = assay: human skin fibroblast proliferation
# Excerpt: as §1, §2, §3
# TIMP-1 = TIMP-1 production by human skin fibroblasts
# Excerpt: as §1, §2
# Next we created and tested for efficacy, additional CCNp including those with the cysteines intact (native sequence) from CCNp37 and CCNp38 and those that were modified by either shortening the peptide by 1 or 2 amino acids or lengthening by one amino acid. […]
# pro-collagen type 1 = pro-collagen type 1 production by human skin fibroblasts
# Excerpt: To test this we used a cell culture model of skin healing/scarring, which employed the use of primary human skin fibroblasts derived from foreskins collected post circumcision. These have been used extensively in the past to grown in culture and treated with agents that are known to drive wound healing and or scarring. We were also interested in a rare form of skin fibrosis/scarring that can lead to systemic disease and death known as nephrogenic systemic fibrosis (NSF). NSF is a complication of NMR diagnostics in renal impaired patients, where gadolinium (GAD), a heavy metal, is used as a contrast agent, but in some cases appears to deposit in skin. Although the mechanism for development of skin fibrosis and subsequent systemic disease is not yet completely understood, we have developed a model that has allowed elucidation of the probable pathway to skin fibrosis (Bhagavathula, N., M. K. Dame, M. DaSilva, W. Jenkins, M. N. Aslam, P. Perone and J. Varani (2010)). “Fibroblast response to gadolinium: role for platelet-derived growth factor receptor.” Invest Radiol 45(12): 769-777). This disease is characterized as a hyperproliferative disease, and in our model it was shown that PDGF produced by resident skin fibroblasts are stimulated by GAD to increase their production of PDGF which acts to induce proliferation and the increased production of MMPs, regulators of ECM breakdown and thus turnover, including the major MMP, MMP-1. At the same time tissue inhibitors of MMPs (TIMPs) are also affected by exposure to GAD. […]
# We examined the role of CCN3 and CCNp in fibroproliferative/fibrotic responses in human dermal fibroblasts exposed to Omniscan, one of the gadolinium-based contrast agents associated with development of nephrogenic systemic fibrosis. […] Cellular proliferation was assessed along with MMP-1 (by ELISA and gelatin zymography), TIMP-1 (by ELISA) and COL1 (by ELISA) in the absence and presence of CCN3 and CCNp. […] In parallel, CCN3 production was assessed in control and Omniscan-treated cells. […]
compound,measurement,setting,value
CC(C)[C@H](NC(=O)CNC(=O)[C@H](CO)NC(=O)[C@@H](N)Cc1ccccc1)C(=O)N[C@@H](CO)C(=O)N[C@@H](CO)C(=O)N[C@@H](CC(=O)O)C(=O)NCC(=O)N[C@@H](CCCNC(=N)N)C(=O)N[C@@H](CO)C(=O)N[C@@H](CO)C(=O)N[C@H](C(=O)N1CCC[C@H]1C(=O)N[C@@H](Cc1c[nH]cn1)C(=O)O)[C@@H](C)O [CCNp37] (H-FSGVSSDGRSSTPH-OH),inhibition of TGF-β-stimulated collagen promoter activity,collagen type I promoter; added 24-hours prior to TGF-β,able to produce some activity
same,inhibition of TGF-β-stimulated collagen promoter activity,"collagen type I promoter; added 24-hours prior to TGF-β, listed as Peptide 37",also present (although to a lower level)
same,inhibition of TGF-β-stimulated collagen promoter activity,collagen type I promoter; added just prior to TGF-β,most effective
same,inhibition of TGF-β-stimulated collagen promoter activity,"collagen type I promoter; added just prior to TGF-β, listed as Peptide 37",ability to totally block TGF-β-stimulated collagen promoter activity
same,inhibition of TGF-β-stimulated collagen promoter activity,"collagen type I promoter; peptide screen, FIG. 8",reduce collagen promoter stimulation by TGF-β; also recorded: inhibition of TGF-beta stimulated collagen promoter activity; also recorded: more potent than CCNp38
same,reduction in growth and/or viability (inhibition of cell growth),[1],15-20%
CC[C@H](C)[C@H](NC(=O)CNC(=O)[C@@H](NC(=O)[C@H](CCC(N)=O)NC(=O)[C@H](CC(N)=O)NC(=O)[C@H](CC(N)=O)NC(=O)[C@@H]1CCCN1C(=O)[C@H](CC(=O)O)NC(=O)[C@H](C)NC(=O)[C@H](CO)NC(=O)[C@H](CCCNC(=N)N)NC(=O)[C@H](CC(=O)O)NC(=O)[C@@H](N)CO)[C@@H](C)O)C(=O)N[C@@H](CO)C(=O)O [CCNp38] (H-SDRSADPNNQTGIS-OH),inhibition of TGF-β-stimulated collagen promoter activity,collagen type I promoter; 500 ng/mL,able to inhibit collagen promoter activity
same,inhibition of TGF-β-stimulated collagen promoter activity,"collagen type I promoter; peptide screen, FIG. 8",reduce collagen promoter stimulation by TGF-β
same,reduction in growth and/or viability (inhibition of cell growth),[1],approximately 40%
"CCNp37-15: Human or mouse analog with native cysteines replaced with serines and without PH on C-terminal end, SEQ. ID. No. 55 (FSGVSSDGRSST)","block of PDGF stimulated MMP-1 production, comparison of modifications","MMP-1; 1 nM to 100 nM, FIGS. 25-27",less effective
"CCNp38-3: Human analog CCNp38 with native cysteines replaced with serines, SEQ. ID. No. 56 (SDRSADPSNQTGIS)",block of PDGF-stimulated fibroblast proliferation,"human skin fibroblasts; PDGF, 10 nM, FIG. 15",equally well; also recorded: this stimulation is blocked
same,effect on baseline cell growth,"human skin fibroblasts; TGF-beta (does not stimulate proliferation), FIG. 16",neither CCN3 (SEQ. ID. No. 67) nor CCNp38-3 (Seq. ID. No. 56) has an effect on baseline cell growth
same,reduction in PDGF stimulated MMP-1 production,MMP-1,about 60%
same,block of PDGF-induced increase in MMP-1 activity,"MMP-1; PDGF, 10 nM, FIG. 17",works better than CCN3 protein; also recorded: works as well or better than CCN3 protein
same,effect on MMP-1 with TGF-beta,"MMP-1; TGF-beta (no stimulating effect), FIG. 18",no effect
same,block of PDGF-induced increase in TIMP-1 production,"TIMP-1; PDGF, 10 nM, FIG. 19",neither CCNp38-3 (Seq. ID. No. 56) nor CCN3 (SEQ. ID. No. 67) is able to block or reduce the increase in TIMP-1 production
same,effect on TIMP-1 production with TGF-beta,"TIMP-1; TGF-beta (fails to stimulate), FIG. 20",neither CCNp38-3 nor CCN3 have an effect; also recorded: neither CCNp38-3 or CCN3 have an effect
same,reduction of TGF-beta-stimulated pro-collagen type 1 production,"pro-collagen type 1; 1-100 nM, FIGS. 31-33",as effective as CCN3
same,block of TGF-beta-induced increase in pro-collagen production,"pro-collagen type 1; TGF-beta, 10 nM, FIG. 21",completely block the increase
"CCNp38-4: Human native CCNp38, SEQ. ID. No. 50 (CDRSADPSNQTGIC; listed as Homo sapiens)","inhibition of PDGF-stimulated proliferation, comparison of modifications","human skin fibroblasts; 1 nM to 100 nM, FIGS. 22-24","inhibited proliferation stimulated by PDGF, but was not as effective as the substituted form"
same,reduction in PDGF stimulated MMP-1 production,MMP-1,about 60%
